# Target: T1, UGT1A8 (Homo sapiens, UniProt Q9HAW9)
# T1 construct: purchased BD Gentest Corp. (Woburn, MA, USA); host or cells: baculovirus-infected insect cells
# T1 sequence (Q9HAW9 26-530): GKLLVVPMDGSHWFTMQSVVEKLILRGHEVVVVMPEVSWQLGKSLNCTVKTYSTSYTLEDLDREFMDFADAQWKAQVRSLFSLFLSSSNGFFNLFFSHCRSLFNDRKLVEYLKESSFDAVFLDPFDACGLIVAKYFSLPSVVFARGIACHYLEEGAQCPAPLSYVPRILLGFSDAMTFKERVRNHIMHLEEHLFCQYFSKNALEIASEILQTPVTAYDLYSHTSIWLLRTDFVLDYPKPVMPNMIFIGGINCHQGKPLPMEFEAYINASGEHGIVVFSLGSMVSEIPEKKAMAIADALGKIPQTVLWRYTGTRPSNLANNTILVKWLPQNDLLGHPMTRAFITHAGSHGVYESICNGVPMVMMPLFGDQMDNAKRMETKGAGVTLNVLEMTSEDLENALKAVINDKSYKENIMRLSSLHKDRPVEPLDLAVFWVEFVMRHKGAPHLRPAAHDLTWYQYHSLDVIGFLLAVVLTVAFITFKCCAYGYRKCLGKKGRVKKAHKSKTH
# Test: Recombinant UGT1A8-catalyzed 4-MU glucuronidation inhibition
# Type: in vitro ADME
# Details: for activity at 100 µM: UGT1A8, 100 μM of compound, 4-MU substrate, read-out: residual activity
# Text: 4-Methylumbelliferone (4-MU), 4-methylumbelliferone-β-D-glucuronide (4-MUG), Tris-HCl, 7-hydroxycoumarin, and uridine-5′-diphosphoglucuronic acid (UDPGA) (trisodium salt) were purchased from Sigma-Aldrich (St. Louis, MO). Recombinant human UGT isoforms (UGT1A1, UGT1A3, UGT1A4, UGT1A6, UGT1A7, UGT1A8, UGT1A9, UGT1A10, UGT2B4, UGT2B7, and UGT2B15) expressed in baculovirus-infected insect cells were obtained from BD Gentest Corp. (Woburn, MA, USA). Ophiopogonin D (OD), ophiopogonin D′ (OD′), methylophiopogonanone A (MA), methylophiopogonanone B (MB), and ruscorectal (RU) were purchased from Sichuan Weikeqi Biotechnology Company (Chengdu, Sichuan, China). The purity of these compounds was above 95%. All other reagents were of HPLC grade or of the highest grade commercially available.
# 4-MU, the nonspecific probe substrate for all the UGT isoforms except UGT1A4, was used in the present study to initially screen the inhibition potential of maidong's components towards UGT isoforms as previously reported. In brief, the incubation system (total volume = 200 μL) consisted of recombinant UGTs, 5 mM UDPGA, 5 mM MgCl2, 50 mM Tris-HCl (pH = 7.4), and 4-MU in the absence or presence of different concentrations of maidong's components. The compounds were dissolved in DMSO, and the final concentration of DMSO was below 0.5% (v/v). The used incubation time and protein concentration were previously determined to ensure the reaction rate within the linear range. The 4-MU concentration was equal to known K m or S 50 values for each UGT isoform. After 5 min preincubation at 37°C, the incubation reaction was initiated via adding UDPGA to the mixture system. The reactions were quenched by adding 100 μL acetonitrile with 7-hydroxycoumarin (100 μM) as internal standard. Centrifuged at 20000 ×g for 10 min, an aliquot of supernatant was transferred to an autoinjector vial for HPLC analysis. The HPLC system (Shimadzu, Kyoto, Japan) contained a SCL-10A system controller, two LC-10AT pumps, a SIL-10A autoinjector, and a SPD-10AVP UV detector. Chromatographic separation was carried out using a C18 column (4.6 × 200 mm, 5 μm, Kromasil) at a flow rate of 1 mL/min and UV detector at 316 nm. The mobile phase consisted of acetonitrile (A) and H2O containing 0.5% (v/v) formic acid (B). The following gradient condition was used: 0–15 min, 95–40% B; 15–20 min, 10% B; 20–30 min, 95% B.
# To determine the inhibition kinetic type and parameters (K i), the reaction velocity (V) was determined at multiple concentrations of maidong's components and 4-MU (or TFP). Dixon plot and Lineweaver-Burk plot were used to fit the data. The inhibition kinetic type was evaluated through determining the intersection point in the Dixon and Lineweaver-Burk plots.
# K m value is the substrate concentration in which the velocity reached half of the maximum velocity (V max) of the reaction. K i value is the inhibition constant.
# [1] = human, pH 7.4, probe 4-methylumbelliferone (4-MU)
SMILES,activity at 100 µM [1],Ki,"inhibition type (UGT1A8, Dixon and Lineweaver-Burk plots)","inhibition at 100 µM (human, pH 7.4, probe 4-methylumbelliferone (4-MU), UGT1A8, at 100 μM, read-out: inhibition percent)"
"COc1ccc(C[C@@H]2COc3c(C)c(O)c(C)c(O)c3C2=O)cc1 [MB, methylophiopogonanone B]",85 ± 4.5%,–,–,–
"CC1CCC2(OC1)OC1CC3C4CC=C5CC(O)CC(O)C5(C)C4CCC3(C)C1C2C (centres unmarked) [RU, ruscorectal]",72 ± 3%,–,–,–
"C[C@@H]1CC[C@@]2(OC1)O[C@H]1C[C@H]3[C@@H]4CC=C5C[C@@H](O[C@@H]6O[C@H](CO)[C@@H](O)[C@H](O[C@@H]7OC[C@@H](O)[C@H](O)[C@H]7O)[C@H]6O[C@@H]6O[C@@H](C)[C@H](O)[C@@H](O)[C@H]6O)CC[C@]5(C)[C@H]4CC[C@]3(C)[C@H]1[C@@H]2C [OD′, ophiopogonin D′]",18.9 ± 6.6%,–,–,–
"C[C@@H]1CC[C@@]2(OC1)O[C@H]1C[C@H]3[C@@H]4CC=C5C[C@@H](O)C[C@@H](O[C@@H]6O[C@H](C)[C@H](O)[C@H](O[C@@H]7OC[C@@H](O)[C@H](O)[C@H]7O)[C@H]6O[C@@H]6O[C@@H](C)[C@H](O)[C@@H](O)[C@H]6O)[C@]5(C)[C@H]4CC[C@]3(C)[C@H]1[C@@H]2C [OD, ophiopogonin D]",17.3 ± 0.9%,40.1 µM,competitively inhibited,82.7%
"Cc1c(O)c(C)c2c(c1O)C(=O)[C@H](Cc1ccc3c(c1)OCO3)CO2 [MA, methylophiopogonanone A]",20.5 ± 2.1%,–,–,–

# — publication PMC4229968, “The Inhibition of the Components from Shengmai Injection towards UDP-Glucuronosyltransferase” (Evidence-based Complementary and Alternative Medicine : eCAM, 2014)
